Each structure is given as a SMILES string.

For the test, the target named is Tumour suppressor p53/oncoprotein Mdm2 (Homo sapiens, UniProt Q00987). Nature of the test: Inhibition of GST-tagged MDM2 (23 to 117 residues) (unknown origin) assessed as inhibition of MDM2/biotinylated wild type human p53 (16 to 27 residues) interaction by measuring reactivation of p53 incubated for 15 mins by AlphaScreen assay. In kind it is protein assay. For orientation: In Alpha technology, singlet oxygen from a donor bead excites a nearby acceptor bead.
Chain of Tumour suppressor p53/oncoprotein Mdm2 (P04637 whole entry, the tested form may be a part): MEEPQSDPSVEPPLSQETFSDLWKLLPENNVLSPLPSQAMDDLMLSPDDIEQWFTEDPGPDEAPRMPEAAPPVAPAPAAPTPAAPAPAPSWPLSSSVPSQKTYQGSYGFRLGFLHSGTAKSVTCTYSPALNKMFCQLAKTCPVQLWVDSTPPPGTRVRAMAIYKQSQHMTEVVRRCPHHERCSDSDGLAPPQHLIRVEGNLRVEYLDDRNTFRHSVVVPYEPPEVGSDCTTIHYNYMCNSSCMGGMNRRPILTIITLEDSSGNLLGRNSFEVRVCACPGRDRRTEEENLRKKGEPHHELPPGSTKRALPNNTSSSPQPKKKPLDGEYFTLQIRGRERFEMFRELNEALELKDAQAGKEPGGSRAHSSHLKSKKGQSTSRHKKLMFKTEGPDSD
Chain of Tumour suppressor p53/oncoprotein Mdm2 (Q00987 whole entry, the tested form may be a part): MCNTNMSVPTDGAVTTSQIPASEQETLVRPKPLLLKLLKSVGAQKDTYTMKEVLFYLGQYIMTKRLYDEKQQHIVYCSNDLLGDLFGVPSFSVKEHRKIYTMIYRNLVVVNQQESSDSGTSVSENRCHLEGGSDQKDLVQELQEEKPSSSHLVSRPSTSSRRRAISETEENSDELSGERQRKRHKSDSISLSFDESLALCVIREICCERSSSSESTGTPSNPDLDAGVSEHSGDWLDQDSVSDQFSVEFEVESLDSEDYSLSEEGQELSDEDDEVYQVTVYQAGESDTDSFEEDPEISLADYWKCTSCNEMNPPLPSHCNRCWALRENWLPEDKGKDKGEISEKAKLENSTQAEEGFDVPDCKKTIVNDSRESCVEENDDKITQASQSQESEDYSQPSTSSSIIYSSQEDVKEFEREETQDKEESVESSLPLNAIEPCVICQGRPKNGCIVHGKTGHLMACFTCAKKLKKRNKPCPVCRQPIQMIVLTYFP
The IC50 is the concentration that gives 50% inhibition. Turning to `CCOc1cccc(CN2[C@H]3Cc4c5cc(C)c(C(=O)NC)cc5nn4[C@H]3[C@H](c3cccc(Cl)c3F)[C@]23C(=O)Nc2nc(Cl)ccc23)c1`, the concentration for half-maximal inhibition (IC50) amounted to 5 nM.
Then `O=C(O)c1ccc2c(c1)nc1n2CC[C@@H]2[C@H]1[C@H](c1cccc(Cl)c1F)[C@]1(C(=O)Nc3cc(Cl)ccc31)N2CC1CC1`, with 79 nM; and `Cc1c(C(=O)N2CCCCC2)ccn2c3c(nc12)[C@@H]1[C@H](CC3)N(CC2CC2)[C@@]2(C(=O)Nc3cc(Cl)ccc32)[C@H]1c1ccnc(Cl)c1F`, with 10 nM.
